Assay results from patent publication US9689042B2, “Use of glycolytic pathways for inhibiting or measuring oncogenic signaling” (The Regents of the University of California, priority 2012, dated 2017).
Entries after “also recorded” stand apart in the source; their conditions may differ.

Assays:
T4-2 cells [1] = experiment: Lactate production assay in 3D lrECM; type: cell-based, human
Description: (§1) Cells suspended in 200 μl lrECM were seeded in 12 well glass-bottom plates (14 mm diameter; MatTek Corporation). Gels were overlaid with 500 μl H14 media and cultured for 10 days before each assay unless otherwise described.
For lactate production, on day 9, conditioned-media were harvested to measure lactate remaining in the 200 μl of the gel (assuming equilibrium between medium and gel, C0 nmol/μl). […] After 24 hours, total culture medium was harvested for measurement of final lactate concentrations (C nmol/μl) and total volumes (V μl) of the conditioned-media, and the cells in gel were fixed with PFA as above. Concentration of lactate in each sample was measured using a lactate assay kit (BioVision). Net lactate production within 24 hours (N) was calculated as follows: N=C×(V+200)−C0×200. Fixed cells were stained with DRAQ5, to measure total level of DNA as a surrogate for number of cells, and the staining was measured as above.
(§2) In each assay, one well, containing only lrECM, was made for background measurements. Glucose uptake measured by 2DG uptake, lactate production and MitoTracker staining were normalized using total DNA levels, and presented relative to that of control (either S1 or non-treated T4-2 cells).

[2] = tested on: EGFR, β1 integrin, Akt, MEK, GLUT3, glycolytic enzymes in T4-2 cells; experiment: Western blots of signaling intermediates, GLUT3 and metabolic enzymes in 3D lrECM cultures of T4-2 cells; type: cell-based, human; conditions: T4-2 cells, 3D lrECM
Description: (§3) Cell colonies were separated from lrECM gels by shaking in PBS containing 5 mM EDTA and the proteinase inhibitor cocktail set I (Calbiochem) on ice for 30 min. Cells were lysed in lysis buffer (1% NP-40, 1% deoxycholate, 2% SDS, 150 mM NaCl, 20 mM Tris-HCl [pH 7.4] plus 5 mM EDTA and protease inhibitor cocktail set I and phosphatase inhibitor cocktail set I [Calbiochem]) and sonicated three times for 30 sec each. Proteins were separated by SDS-PAGE, transferred to nitrocellulose membranes, and probed with antibodies against the following proteins: phosphorylated MEK, MEK, phosphorylated Akt, Akt, phosphorylated AMPK, AMPK, p70S6K, phosphorylated p70S6K, CHOP, EPAC1 (Cell Signaling), β1 integrin, EGFR, activated EGFR, HIF-1α, (Chemicon International), PFKP (Abgent), GAPDH, GLUT3 (GeneTex), LDHA, PDHE1α, DLAT, DLD, HIF-3α, Rap1, sAC, EPAC2, OGT, Lamin A/C (Santa Cruz Biotechnology), Aldolase (Polysciences), GFPT (ProteinTech Group), HIF-2α (Abcam), and HA-tag (Covance). After probing with HRP-conjugated secondary antibodies, blots were developed using SuperSignal West Femto chemiluminescence reagent (Pierce Biotechnology). Images were captured using Fluor Chem 8900 imager (Alpha Innotech).

MDA-MB-231 cells [3] = experiment: 3D lrECM culture of MDA-MB-231 cells; type: cell-based, human; conditions: IA 40 μM, DON 20 μM
HCC70 cells = experiment: 3D lrECM culture of HCC70 cells; type: cell-based, human; conditions: IA 2 μM, DON 20 μM
T4-2 cells [4] = experiment: Glucose uptake assay (IRDye800CW-2DG) in 3D lrECM; type: cell-based, human
Description: as §1
For glucose uptake assay, cells were incubated with 1 μM of IRDye800CW-2DG (LI-COR Biosciences) for 1 hour, fixed within gels with 4% paraformaldehyde (PFA) in PBS for 30 min. and stained with DRAQ5 (1:10000 dilution), an infrared dye that binds stoichiometrically to DNA, for 30 min. Cells were extensively washed with PBS, then IRDye800-2DG uptake together with DRAQ5 staining were measured by using Odyssey Infrared Imaging System (LI-COR Biosciences).
as §2

T4-2 cells [5] = conditions: T4-2 cells, 3D lrECM; for phenotypic reversion of the malignant phenotype: 2DG 4 mM, IA 20 μM, OX 50 mM, Azs 20 μM, DON 20 μM, BADGP 5 mM, TM 10 ng/ml, OGM 4 ng/ml, Rapa 0.01-1.0 μM
Description: HMT-3522 cells were cultured on tissue culture plastic (2D) and in 3D lrECM gels with H14 medium, a 1:1 mix of DMEM/F12 (UCSF Cell Culture Facility) supplemented with 250 ng/ml insulin, 10 μg/ml transferrin, 2.6 ng/ml sodium selenite, 0.1 nM β-estradiol, 1.4 μM hydrocortisone and 5 μg/ml prolactin but no serum. S1 cells were additionally supplemented with 10 ng/ml EGF. MDA-MB-231 and HCC70 cells were cultured in DMEM and RPMI1640, respectively, and were supplemented with 10% fetal bovine serum (FBS).
For 3D lrECM cultures, S1 and T4-2 cells were seeded at 840,000 and 600,000 cells per cm3 respectively in lrECM gel (Cultrex), overlaid with H14 medium. MDA-MB-231 and HCC70 cells were seeded at 625,000 cell per cm3 and overlaid with H14 medium supplemented with 1% FBS. Cells were used for each assay after 10 days, unless otherwise indicated.
Pieces of lrECM gel containing cell colonies were suspended in approximately the same volume of phosphate buffered saline (PBS) and directly spread on glass slides. After brief air-drying, colonies were fixed with 3.7% paraformaldehyde (PFA) in PBS at room temperature (RT) for 10 min, washed with PBS containing 0.1 mM glycine, and permeabilized with 1:1 methanol/acetone at −20° C. for 10 min. After blocking with IF buffer (0.2% Triton X-100, 0.1% BSA [radioimmunoassay grade], 0.05% Tween 20, 7.7 mM NaN3 in PBS) containing 10% goat serum and 1% goat F(ab′)2 anti-mouse immunoglobulin G (IgG; Caltag) at RT for 30 min, colonies were stained with anti-α6 integrin antibody (Chemicon International) at 4° C. overnight. Colonies were washed extensively with IF buffer, and stained with Alexa 568-labeled anti-rat IgG antibody at RT for 2 hr. Colonies were washed with IF buffer again, and nuclei were stained with DAPI at RT for 10 min. Slides were briefly washed with PBS and mounted with 50% glycerol in PBS.
To test whether increased glucose metabolism itself is required for oncogenic signaling events, we utilized 3D lrECM cultures of HMT-3522, a breast cancer progression series which includes non-malignant (S1) and malignant (T4-2) human breast epithelial cells from the same individual (Briand et al., 1987; Petersen et al., 1992; Rizki et al., 2008). Using these cells, we have described the involvement and reciprocity of multiple signaling pathways including EGFR, β1 integrin, PI3K-Akt and MEK-ERK in oncogenic events (Beliveau et al., 2010; Bissell et al., 2005). […] We thus used this “phenotypic reversion” of the cancer cells as an assay to examine how the signaling integration plan of the breast acini could involve glucose metabolism.

[6] = tested on: signaling intermediates in MDA-MB-231 cells; experiment: Western blots of signaling intermediates in MDA-MB-231 cells; type: cell-based, human; conditions: IA 40 μM, DON 20 μM
Description: as §3

MDA-MB-231 cells [7] = experiment: In vitro invasive activity (Matrigel invasion chamber); type: cell-based, human; conditions: IA 40 μM, DON 20 μM, 17.5 mM glucose, 16 hours
Description: Invasive activity was examined using BD Biocoat GFR (growth factor reduced) Matrigel invasion chamber (BD Biosciences). Before the assay, lower surface of the membrane of the upper chamber was coated with collagen type I (10 μg/ml). MDA-MB-231 cells cultured on 2D plastic for two days with H14 medium containing different concentrations of glucose (17.5, 1.75 or 0 mM) or supplemented with metabolic inhibitors (40 μM IA or 20 μM DON, with 17.5 mM glucose) were detached by trypsinization, and 25,000 cells in each condition were seeded on the upper chambers. Both upper and lower chambers were filled with medium of the same formulations as that in each 2D culture. After 16 hours, cells were fixed with 4% PFA in PBS and stained with crystal violet.

T4-2 cells [8] = experiment: Mitochondrial activity (MitoTracker oxidation) assay in 3D lrECM; type: cell-based, human
Description: as §1
For mitochondrial activity, we slightly modified the method described previously (Morici et al., 2007). Briefly, cells were incubated with 2 μM MitoTracker® Orange CM-H2 TMRos (Invitrogen) for 1 hour and fixed with PFA as above. Cells were counterstained with Hoechst 33342 (Invitrogen), which is known also to bind to DNA stoichiometrically, then MitoTracker and Hoechst staining were measured by taking z-section images from top to bottom of the gels using confocal microscopy.
as §2

Rap1 = experiment: Measurement of Rap1 activity (GST-RalGDS-RBD pull-down) in T4-2 cells; type: cell-based, human; conditions: T4-2 cells, 3D lrECM, IA 20 μM
Description: Rap1 activity was measured as described previously (Itoh et al., 2007). Briefly, cell colonies were extracted from lrECM as described above, and lysed in lysis buffer (50 mM Tris-HCl [pH 7.4], 500 mM NaCl, 1% NP40, 2.5 mM MgCl2, 10% glycerol, 10 μg/ml aprotinin and 10 μg/ml leupeptin) at 4° C. for 30 min. Lysates were cleared by centrifugation at 15,000×g at 4° C. for 15 min. Supernatants (containing 300 μg protein in 300 μl) were incubated with 15 μg of GST-tagged RalGDS-RBD fusion protein immobilized on Glutathione Sepharose 4B beads (GE Healthcare), at 4° C. for 1 hr. Beads were washed trice in lysis buffer and resuspended in Laemmli buffer. Samples were separated by SDS-PAGE, followed by transfer to polyvinylidene fluoride membranes (0.2 μm pore) and immunoblotting using anti-Rap1 antibody.

[9] = same inhibitor concentrations as E1

SMILES	lactate production (T4-2 cells [1])	levels and/or activities of EGFR, β1 integrin, Akt and MEK (oncogenic signaling) ([2]; Western blot)	EGFR expression and activity ([2]; Azs 20 μM, DON 20 μM)	altered phenotype (MDA-MB-231 cells [3])	proliferation (total cell numbers) (MDA-MB-231 cells [3])	reversion phenotype (HCC70 cells)	glucose uptake (T4-2 cells [4])	phenotypic reversion of the malignant phenotype (T4-2 cells [5])	basal polarity / organized acinar structures (T4-2 cells [5]; [9])	growth / proliferation (cell numbers at the colony mid-section, EdU incorporation) (T4-2 cells [5]; [9])	other signaling activities [6]	invasive property (MDA-MB-231 cells [7])	mitochondrial activity (oxidation) (T4-2 cells [8])	EGFR and MEK ([2]; basal medium 17.5 mM glucose, IA 20 μM, OX 50 mM)	Rap1 activity (Rap1)
[N-]=[N+]=CC(=O)CC[C@H](N)C(=O)O [DON, 6-diazo-5-oxonorleucine]	significantly down-regulated	suppression of activation of oncogenic signaling	significantly down-regulated	incomplete but still significant	appreciable decrease	reversion phenotype was similar to that in T4-2 cells	significantly down-regulated	do induce phenotypic reversion; also recorded: induced the repertoire of the reversion phenotype	re-establishment of tissue polarity	growth arrest	appreciable decrease	appreciable decrease	remained unaltered	–	–
O=C(O)CI [IA, Iodoacetate]	–	–	–	incomplete but still significant	appreciable decrease	reversion phenotype was similar to that in T4-2 cells	–	do induce phenotypic reversion	–	–	appreciable decrease	appreciable decrease	–	not affected appreciably	down-regulation of Rap1 activity without a change in its total protein level
